Reference: US7094752B2 (Chiron Corporation, priority 1997, dated 2006)

Columns and labels:
[1] = biological target: T1, uPA1–48:uPAR complexes binding to vitronectin (Homo sapiens, UniProt Q03405); test: Vitronectin binding assay (ELISA); conditions: 20 nM biotinylated suPAR, 20 nM uPA1–48
T1 construct: sUPAR, soluble truncated form of the urokinase receptor; made in house; host or cells: suPAR: baculovirus-infected Sf9 cells; uPA1-48: recombinant yeast; vitronectin: purified from human plasma
Protocol: Vitronectin was purified from human plasma by the method of Yatohgo et al, Cello Struct.and Funct. 13: 281–292 (1988). Purified vitronectin was diluted to 20 μg/ml in PBS containing 1 mM CaCl2 and 0.5 mM MgCl2, dispensed at 50 μl/well into Immulon II wells (Dynatech, Chantilly, Va.), incubated overnight at 4° C. and washed with PBS/BSA. Biotinylated sUPAR was diluted to 20 nM in PBS/BSA, incubated with or without test ligand for 30 minutes at room temperature (22° C.), dispensed at 100 μl/well and incubated for 90 minutes. Wells were then washed and horseradish peroxidase (HRP)-conjugated streptavidin was added at 0.4 μg/ml in PBS/2% BSA for 1 hour followed by washing and addition of 100 μl/well TMB substrate. The color development was stopped with 100 μl of 0.8N H2SO4 and the absorbance at 450 nm measured in a 96 well plate reader (Dynatech, Chantilly, Va.). Antagonistic effects of test ligands were measured as described above except the ligands were incubated with 20 nM biotinylated suPAR in the presence of 20 nM uPA1–48.
In order to analyze the effects of the various peptide ligands on the uPAR:vitronectin interaction, we developed an in vitro ELISA based assay for this interaction, in which biotinylated suPAR and uPA1–48 bind to immobilized, urea purified vitronectin, and the bound sUPAR is detected with HRP conjugated streptavidin. Under the conditions of the assay binding of biotinylated uPAR to vitronectin is strictly dependent on uPA1–48, as shown in FIG. 1.

sUPAR domain 2–3 (D23) = biological target: T2, sUPAR domain 2–3 (D23) (Homo sapiens, UniProt Q03405); test: Bacteriophage binding to sUPAR domain 2/3; conditions: phage-displayed peptide
T2 construct: domains 2 and 3 (amino acids 93–313); made in house; host or cells: baculovirus infected Sf9 insect cells
Protocol: FIG. 5. Bacteriophage binding to sUPAR domain 2/3. Phage were added to wells containing sUPAR domain 2/3 immobilized by its epitope tag via protein G and monoclonal antibody to the epitope tag. Wells containing protein G and antibody but no domain 2/3 were included to determine nonspecific phage binding. Urea-eluted phage and the input stocks were titered by plaque formation assay. Results were single point determinations calculated as a percent of the input titer and were repeated in three separate experiments.
It was also shown by the inventors that bacteriophage bound to sUPAR domain 2–3fragment. Protein G, 100μl, 1 mg/ml in 50 mM Na2CO3, pH9.6, was added to MaxiSorp wells, incubated overnight at 4° C. and then washed with PBS/BSA. Fifty μl of monoclonal antibody to the epitope tag EYMPME (SEQ ID NO: 18) was added at 1 mg/ml in PBS/BSA and incubated for 2 hours at room temperature. The wells were washed, recombinant sUPAR domain 2–3 (1.7 μM in PBS/BSA) was added and incubated for 1.5 hours at room temperature. The wells were washed prior to the addition of bacteriophage (approximately 10^8 pfu), and then treated as described in the previous section for binding to suPAR.

[2] = system: GPI-uPAR dependent adhesion of 293 cells to vitronectin; test: Adhesion of GPI-uPAR expressing 293 cells to vitronectin; format: cell-based
Description: In order to ascertain whether cytoskeletal connecting elements important to integrin-dependent adhesion were also involved in adhesion mediated by uPAR, embryonic kidney cells (293 cells) were engineered to coexpress uPAR along with a chimeric protein comprised of the β1 cytoplasmic tail fused with the transmembrane domain of […] (CD4). […] Co-expression of uPAR with β1 cytoplasmic domains completely abrogated uPAR-dependent vitronectin adhesion. Clones expressing full length or truncated β1 cytoplasmic tails prepared as in Lukashev et al, J. Biol. Chem. 26: 18311 (1994) were transfected with cDNA for GPI-uPAR and selected as in Wei et al, J. Biol. Chem. 169: 32380 (1994). Chimeric β1 expression was induced by cadmium for 6 hours prior to assaying adhesion to vitronectin at 37° C. Following induction of full length β1 chimerics, essentially no cells were adherent to vitronectin-coated surfaces whereas co-transfectants expressing the truncated β1 adhered avidly.
Cell adhesion assays were conducted to determin whether the observed uPAR/β1/caveolin complexes were functionally relevant.
To test this hypothesis further, a phage display peptide library was screened for uPAR-binding phages. A number of phage peptides were isolated as described in Goodson et al, Proc. Natl. Acad. Sci. U.S.A. 91: 7129 (1994). […]

nontransfected 293 cells = test: Adhesion of nontransfected 293 cells to fibronectin or collagen; format: cell-based
Description: To explore whether uPAR binds to integrins, nontransfected 293 cells were allowed to adhere to fibronectin or collagen in the presence of recombinant soluble uPAR (suPAR).

T2 sequence (Q03405 115-335): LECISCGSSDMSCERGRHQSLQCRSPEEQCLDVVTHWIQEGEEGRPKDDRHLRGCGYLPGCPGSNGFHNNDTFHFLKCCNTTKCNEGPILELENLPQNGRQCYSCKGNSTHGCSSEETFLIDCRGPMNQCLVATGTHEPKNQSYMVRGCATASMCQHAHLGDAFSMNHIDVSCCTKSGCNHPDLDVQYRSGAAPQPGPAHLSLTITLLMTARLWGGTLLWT
T1 sequence (Q03405 23-305 limits assumed, one chain of several): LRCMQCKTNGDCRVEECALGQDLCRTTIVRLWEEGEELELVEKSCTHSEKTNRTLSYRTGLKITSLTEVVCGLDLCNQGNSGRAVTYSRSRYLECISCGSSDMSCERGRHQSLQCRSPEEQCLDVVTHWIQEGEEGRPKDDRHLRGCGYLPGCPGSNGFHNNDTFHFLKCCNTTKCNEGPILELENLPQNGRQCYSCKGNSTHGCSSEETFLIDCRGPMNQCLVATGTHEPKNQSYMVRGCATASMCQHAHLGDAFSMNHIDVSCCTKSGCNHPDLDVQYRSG

## H-AESTYHHLSLGYMYTLN-NH2 [peptide 25]
[1]
  effect on binding of uPA1–48:uPAR complexes to vitronectin: little or no effect
sUPAR domain 2–3 (D23); listed as bacteriophage 25
  bacteriophage binding to immobilized D23 versus sUPAR: equivalent binding to D23 and suPAR
sUPAR domain 2–3 (D23); listed as clone 25
  bacteriophage binding to immobilized D23 versus sUPAR: bind equivalently to the D23 fragment and full-length receptor
[2]
  IC50: ~60 µM
Nontransfected 293 cells; 100 μM peptide
  reversal of suPAR inhibition of adhesion to fibronectin and collagen: reversible
Nontransfected 293 cells; peptide alone
  adhesion to fibronectin by nontransfected 293 cells: no effect
